Experimental data as given in paper PMC7037732, “Synthesis of Combretastatin A-4 and 3′-Aminocombretastatin A-4 derivatives with Aminoacid Containing Pendants and Study of their Interaction with Tubulin and as Downregulators of the VEGF, hTERT and c-Myc Gene Expression” (Molecules, 2020).

Columns and labels:
[1] = tested on: HT-29 (human colon adenocarcinoma); assay: Inhibition of cell proliferation (MTT), HT-29; type: cell-based; conditions: Homo sapiens, 48 h of treatment (footnote), average ±SD of three experiments
Excerpt: (§1) The ability of the synthetic compounds to inhibit cell proliferation was established by means of their IC50 values towards the tumor cell lines HT-29 (human colon adenocarcinoma), MCF-7 (breast adenocarcinoma) and A-549 (human pulmonary adenocarcinoma), as well as towards the nontumor cell line HEK-293 (human embryonic kidney cells). Results for compounds derived from CA-4 are presented in Table 1, along with the calculated selectivity indexes SIA (for HT-29 cell line), SIB (for MCF-7 cell line) and SIc (for A-549 cell line), obtained by dividing the IC50 values of the nontumor cell line (HEK-293) by those of the corresponding tumor cell line. The higher the SI index, the higher the therapeutic safety margin.
(§2) Cell culture media were purchased from Gibco (Grand Island, NY, USA). Fetal bovine serum (FBS) was a product of Harlan-Seralab (Belton, U.K.). Supplements and other chemicals not listed in this section were obtained from Sigma Chemical Co. (St. Louis, MO, USA). Plastics for cell culture were supplied by Thermo Fischer Scientific Inc., Madrid, Spain. All tested compounds were dissolved in DMSO at a concentration of 10 μg/mL and stored at −20 °C until use. HT-29, MCF-7, A-549 and HEK-293 cell lines were maintained in a Dulbecco’s modified Eagle’s medium (DMEM) containing glucose (1 g/L), glutamine (2 mM), penicillin (50 IU/mL), streptomycin (50 μg/mL) and amphotericin B (1.25 μg/mL), supplemented with 10% FBS. Cells from human non-small lung carcinoma (clone A549; ATCC n°: CCL2, MD, USA) were routinely grown at 37 °C in a humidified atmosphere of 5% CO2. Cells were maintained in a standard medium composed of RPMI 1640 (Lonza, Group Ltd., Basel, Switzerland), supplemented with 10% fetal bovine serum (FBS), 2 mM L-glutamine and 1% penicillin and streptomycin (Invitrogen). Cells were free from mycoplasma as determined by MycoAlert tests (Lonza, Group Ltd., Basel, Switzerland).
(§3) A total of 5 × 10^3 HT-29, MCF-7 or HEK-293 cells in a total volume of 100 μL of their respective growth media were incubated with serial dilutions of the tested compounds. The 3-(4,5-dimethylthiazol-2-yl)-2,5-diphenyltetrazolium bromide (MTT; Sigma Chemical Co.) dye reduction assay in a 96-well microplate was used, as previously described. […] The resulting formazan was dissolved in 150 μL of 0.04 N HCl/2-propanol and read at 550 nm. All determinations were carried out in triplicate.

[2] = tested on: MCF-7 (breast adenocarcinoma); assay: Inhibition of cell proliferation (MTT), MCF-7; type: cell-based, human; conditions: Homo sapiens, 48 h of treatment (footnote), average ±SD of three experiments
Excerpt: as §1, §2, §3

[3] = tested on: A-549 cells; assay: Cell cycle distribution by flow cytometry; type: cell-based, human; conditions: A-549, 24 h
Experimental: The effects of some CA-4 derivatives on the cell cycle were evaluated in A-549 cells.
The effects of some AmCA-4 derivatives on the cell cycle were also evaluated in A-549 cells.
The supernatant and trypsinated cells were harvested and then centrifuged (1200 rpm, 5 min, 4 °C). The cell pellet was resuspended in 1 mL of cold 70% ethanol for 30 min at −20 °C. Cells were centrifuged (2000 rpm, 5 min, 4 °C) to remove ethanol, and then the cell pellet was resuspended in the staining mix containing 50 µg/mL propidium iodide (Molecular Probes, France) and 100 µg/mL RNAse A (Sigma, France) in PBS for 20 min at room temperature in darkness. Samples were analyzed on a Becton Dickinson FACScan flow cytometer using the CellQuest software, which was also used to determine the percentage of cells in the G2/M phases of the cell cycle. PI was excited at 488 nm, and fluorescence analyzed at 620 nm on channel Fl-2.

[4] = tested on: purified tubulin; assay: Critical concentration (CrC) for the assembly of purified tubulin in GAB; type: biochemical; conditions: compound 27.5 μM, tubulin 25 μM, glycerol (GAB) and GTP assembly buffer; control 7.9 ± 1.2
Experimental: The effect on the self-assembly of tubulin was determined by measuring the critical concentration (CrC).

[5] = tested on: HEK-293 (human embryonic kidney cells); assay: Inhibition of cell proliferation (MTT), nontumor HEK-293; type: cell-based; conditions: Homo sapiens, 48 h of treatment (footnote), average ±SD of three experiments
Excerpt: as §1, §2, §3

[6] = tested on: A-549 (human pulmonary adenocarcinoma); assay: Inhibition of cell proliferation (MTT), A-549; type: cell-based; conditions: 48 h of treatment (footnote), average ±SD of three experiments
Excerpt: as §1
as §2, with “Switzerland). […]” for “Switzerland).”

[7] = tested on: VEGF gene; assay: VEGF gene expression by RT-qPCR in HT-29 cells; type: cell-based, human; conditions: HT-29, 48 h
Experimental: (§4) The effect on the expression of VEGF, hTERT and c-Myc genes has been studied for CA-4 and its derivatives that show selectivity indexes higher than 0.9 on the HT-29 cell line. The studied derivatives, together with the concentrations to which they have been tested, are CA-4 (15 μM); 4.1 (Gly, 5 μM); 4.5 (L-Pro, 25 μM); 4.9 (L-Met, 25 μM); 6.2 (D-Leu, 25 μM); 6.3 (D-Phe, 25 μM); 6.4 (D-Pro, 25 μM) and 6.5 (D-Ser, 10 μM). The expression of the genes was determined by RT-qPCR methodology, as described in the Materials and Methods section.
(§5) As regards AmCA-4 derivatives, the effect on the expression of the VEGF, hTERT and c-Myc genes has been studied on those that show IC50 in the low nanomolar range on the HT-29 cell line and/or on compounds whose selectivity indexes with respect to this cell line are higher than 1. The studied compounds, together with the concentrations to which they have been tested, are: CA-4 (15 μM), AmCA-4 (15 nM), 7.1 (7 nM), 7.2 (1.5 nM), 7.3 (4 nM), 7.4 (15 nM), 7.5 (2 nM), 7.7 (7 nM), 7.8 (15 nM), 7.9 (30 nM), 8.1 (7 nM), 8.2 (3 nM), 8.3 (10 nM), 8.4 (1.5 nM), 8.5 (4 nM), 8.7 (7 nM), 8.8 (3 nM) and 8.9 (4 nM).
(§6) HT-29 cells at 70–80% confluence were collected, and 1.5 × 10^5 cells were placed in a six-well plate in 1.5 mL of the medium. After 24 h, cells were incubated with the corresponding compounds for 48 h. Cells were collected, and the total cellular RNA from the HT-29 cells was isolated using an Ambion RNA Extraction Kit, according to the manufacturer’s instructions. The cDNA was synthesized by MMLV-RT with […] of extracted RNA and oligo(dT)15, according to the manufacturer’s instructions. Genes were amplified by a thermal cycler and StepOnePlus™ TaqMan® probes. TaqMan® Gene Expression Master Mix Fast, containing the appropriate buffer for the amplification conditions, dNTPs, thermostable DNA polymerase enzyme and a passive reference probe, was used. To amplify each of the genes, the predesigned primers sold by Life Technologies TaqMan® Gene Expression Assays Hs99999903-m1 (β-actin), Hs00900055-m1 (VEGF), Hs00972646-m1 (hTERT) and Hs00153408-m1 (c-Myc) were used.

[8] = tested on: c-Myc gene; assay: c-Myc gene expression by RT-qPCR in HT-29 cells; type: cell-based, human; conditions: HT-29, 48 h
Experimental: as §4, §5, §6

[9] = tested on: hTERT gene; assay: hTERT gene expression by RT-qPCR in HT-29 cells; type: cell-based, human; conditions: Homo sapiens, HT-29, 48 h, 1.5 nM, control 100
Experimental: as §4, §5, §6

[10] = concentration per compound as in Tables 6 and 7
[11] = Homo sapiens, A549, 48 h, Table 1
[12] = discussion, concentration per compound
[13] = Homo sapiens, 1.5 nM, control 100
[14] = Homo sapiens, A549, 48 h, Table 2

Structure (SMILES)	IC50 ([1]; HT-29, Table 1) [µM]	IC50 ([2]; MCF7, Table 1) [µM]	IC50 [6, 11] [µM]	Effect on the cell cycle [3, 10]	CrC (critical concentration) [4] [µM]	IC50 ([5]; HEK293, Table 1) [µM]	G0/G1 ([3]; 75 μM) [%]	G2/M ([3]; 75 μM) [%]	S ([3]; 75 μM) [%]	further results
COc1ccc(/C=C\c2cc(OC)c(OC)c(OC)c2)cc1OCC(=O)N1CCC[C@H]1C(=O)O [Compound 4.5]			110 ± 10	do not exert any significant effect on the cells	9.2 ± 0.5		72	16	12	IC50 ([1]; HT-29, 48 h, Table 1): 26 ± 13 µM; IC50 ([2]; MCF7, 48 h, Table 1): 83 ± 16 µM; IC50 ([5]; HEK293, 48 h, Table 1): 45 ± 16 µM
COC(=O)[C@@H](CO)NC(=O)COc1cc(/C=C\c2cc(OC)c(OC)c(OC)c2)ccc1OC [Compound 5.5]			28 ± 1		9.2 ± 0.9					IC50 ([1]; HT-29, 48 h, Table 1): 11 ± 2 µM; IC50 ([2]; MCF7, 48 h, Table 1): 7 ± 2 µM; cells accumulated in the G2/M phase ([3]; concentration per compound as in Tables 6 and 7, control 14%): 50–70%; IC50 ([5]; HEK293, 48 h, Table 1): 9 ± 3 µM
COc1ccc(/C=C\c2cc(OC)c(OC)c(OC)c2)cc1NC(=O)[C@H](C)NC(=O)OCC1c2ccccc2-c2ccccc21 [Compound 7.2]					9.4 ± 0.3					downregulation of VEGF gene expression [7, 12]: more than 60%; mrna remaining at 0.0015 µM [7, 13]: 25%; G0/G1 ([3]; 0.5 µM): 28 ± 1%; G2/M ([3]; 0.5 µM): 53 ± 2%; S ([3]; 0.5 µM): 19 ± 2%; downregulation of c-Myc gene expression [8, 12]: more than 60%; mrna remaining at 0.0015 µM [8, 13]: 22%; mrna remaining at 0.0015 µM [9]: 79%; IC50 [6, 14]: 0.242 ± 0.013 µM
COc1ccc(/C=C\c2cc(OC)c(OC)c(OC)c2)cc1NC(=O)[C@H](N)CC(C)C [Compound 10.2]				do not accumulate a high percentage of cells in phase G2/M	7.0 ± 0.5					IC50 ([1]; HT-29, 48 h, Table 2): 1.05 ± 0.14 µM; IC50 ([2]; MCF7, 48 h, Table 2): 2 ± 0.9 µM; G0/G1 ([3]; 0.5 µM): 63 ± 4%; G2/M ([3]; 0.5 µM): 22 ± 2%; S ([3]; 0.5 µM): 16 ± 3%; IC50 ([5]; HEK293, 48 h, Table 2): 0.43 ± 0.04 µM; IC50 [6, 14]: 0.157 ± 0.007 µM

The next lines start with results.

IC50 ([1]; HT-29, Table 1) [µM]	IC50 ([2]; MCF7, Table 1) [µM]	IC50 [6, 11] [µM]	Structure (SMILES)	Effect on the cell cycle [3, 10]	CrC (critical concentration) [4] [µM]	IC50 ([5]; HEK293, Table 1) [µM]	G0/G1 ([3]; 75 μM) [%]	G2/M ([3]; 75 μM) [%]	S ([3]; 75 μM) [%]	further results
48 ± 5	24 ± 2	50 ± 10	COC(=O)[C@@H]1CCCN1C(=O)COc1cc(/C=C\c2cc(OC)c(OC)c(OC)c2)ccc1OC [Compound 3.5]	do not exert any significant effect on the cells	10.4 ± 2.0	20 ± 1				G0/G1 ([3]; 100 μM): 77 ± 2%; G2/M ([3]; 100 μM): 7 ± 1%; S ([3]; 100 μM): 16 ± 2%
16 ± 7	10 ± 3	< 10	COC(=O)[C@H](CCSC)NC(=O)COc1cc(/C=C\c2cc(OC)c(OC)c(OC)c2)ccc1OC [Compound 3.9]		8.06 ± 0.04	8 ± 1	47 ± 4	36 ± 1	17 ± 3	IC50 ([6]; Table 1): 10 ± 2 µM
50	10 ± 4	15 ± 1	COC(=O)[C@H]1CCCN1C(=O)COc1cc(/C=C\c2cc(OC)c(OC)c(OC)c2)ccc1OC [Compound 5.4]		9 ± 3	5.7 ± 0.8	36 ± 4	50 ± 1	14 ± 3	
45 ± 5	46 ± 3	54 ± 7	COc1ccc(/C=C\c2cc(OC)c(OC)c(OC)c2)cc1OCC(=O)N[C@@H](C(=O)O)C(C)C [Compound 6.1]	do not exert any significant effect on the cells	9.4 ± 1.3	39 ± 6				G0/G1 ([3]; 100 μM): 67 ± 2%; G2/M ([3]; 100 μM): 13 ± 1%; S ([3]; 100 μM): 20 ± 2%
